Source: ChEMBL document CHEMBL5463727, “Data for DCP probe SGK3-PROTAC1” (2023)

What was measured:
[1] = target: 5'-AMP-activated protein kinase catalytic subunit alpha-1 (Homo sapiens) (UniProt Q13131); test: % Activity remaining of AMPK (hum) in the Dundee kinase panel at 1.0 µM; settings: Compound concentration 1.0 uM
[2] = target: Aurora kinase A (Homo sapiens) (UniProt O14965); test: % Activity remaining of Aurora A in the Dundee kinase panel at 1.0 µM; settings: Compound concentration 1.0 uM
[3] = target: Serine/threonine-protein kinase BRSK1 (Homo sapiens) (UniProt Q8TDC3); test: % Activity remaining of BRSK1 in the Dundee kinase panel at 1.0 µM; settings: Compound concentration 1.0 uM
[4] = target: Tyrosine-protein kinase BTK (Homo sapiens) (UniProt Q06187); test: % Activity remaining of BTK in the Dundee kinase panel at 1.0 µM; settings: Compound concentration 1.0 uM
[5] = target: Calcium/calmodulin-dependent protein kinase kinase 2 (Homo sapiens) (UniProt Q96RR4); test: % Activity remaining of CAMKK beta in the Dundee kinase panel at 1.0 µM; settings: Compound concentration 1.0 uM
Chain of Calcium/calmodulin-dependent protein kinase kinase 2 (Homo sapiens) (Q96RR4 2-588 limits assumed): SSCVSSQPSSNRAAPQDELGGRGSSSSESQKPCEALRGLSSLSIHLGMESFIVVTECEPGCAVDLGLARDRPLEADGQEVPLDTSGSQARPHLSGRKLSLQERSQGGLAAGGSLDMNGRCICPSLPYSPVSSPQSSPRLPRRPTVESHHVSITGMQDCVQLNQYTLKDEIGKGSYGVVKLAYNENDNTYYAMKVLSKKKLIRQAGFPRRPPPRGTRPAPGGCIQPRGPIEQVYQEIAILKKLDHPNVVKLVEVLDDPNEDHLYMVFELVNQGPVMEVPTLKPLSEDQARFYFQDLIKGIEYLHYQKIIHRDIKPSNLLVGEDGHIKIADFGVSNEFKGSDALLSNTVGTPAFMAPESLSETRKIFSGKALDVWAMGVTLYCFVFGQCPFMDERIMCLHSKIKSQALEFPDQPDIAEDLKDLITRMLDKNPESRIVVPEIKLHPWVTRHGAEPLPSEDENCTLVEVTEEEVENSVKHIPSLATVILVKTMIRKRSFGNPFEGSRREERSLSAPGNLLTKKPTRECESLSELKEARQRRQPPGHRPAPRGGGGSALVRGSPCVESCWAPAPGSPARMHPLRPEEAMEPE

[6] = target: CDK9/cyclin T1 (Homo sapiens) (UniProt O60563+P50750); test: % Activity remaining of CDK9-Cyclin T1 in the Dundee kinase panel at 1.0 µM; type: protein-complex assay; settings: Compound concentration 1.0 uM
[7] = target: Serine/threonine-protein kinase Chk1 (Homo sapiens) (UniProt O14757); test: % Activity remaining of CHK1 in the Dundee kinase panel at 1.0 µM; settings: Compound concentration 1.0 uM
[8] = target: Dual specificity protein kinase CLK2 (Homo sapiens) (UniProt P49760); test: % Activity remaining of CLK2 in the Dundee kinase panel at 1.0 µM; settings: Compound concentration 1.0 uM
[9] = target: Tyrosine-protein kinase CSK (Homo sapiens) (UniProt P41240); test: % Activity remaining of CSK in the Dundee kinase panel at 1.0 µM; settings: Compound concentration 1.0 uM
[10] = target: Dual specificity tyrosine-phosphorylation-regulated kinase 3 (Homo sapiens) (UniProt O43781); test: % Activity remaining of DYRK3 in the Dundee kinase panel at 1.0 µM; settings: Compound concentration 1.0 uM
[11] = target: Glycogen synthase kinase-3 beta (Homo sapiens) (UniProt P49841); test: % Activity remaining of GSK3 beta in the Dundee kinase panel at 1.0 µM; settings: Compound concentration 1.0 uM
[12] = target: Homeodomain-interacting protein kinase 2 (Homo sapiens) (UniProt Q9H2X6); test: % Activity remaining of HIPK2 in the Dundee kinase panel at 1.0 µM; settings: Compound concentration 1.0 uM
[13] = target: Interleukin-1 receptor-associated kinase 1 (Homo sapiens) (UniProt P51617); test: % Activity remaining of IRAK1 in the Dundee kinase panel at 1.0 µM; settings: Compound concentration 1.0 uM
[14] = target: Insulin receptor-related protein (Homo sapiens) (UniProt P14616); test: % Activity remaining of IRR in the Dundee kinase panel at 1.0 µM; settings: Compound concentration 1.0 uM
[15] = target: Tyrosine-protein kinase JAK2 (Homo sapiens) (UniProt O60674); test: % Activity remaining of JAK2 in the Dundee kinase panel at 1.0 µM; settings: Compound concentration 1.0 uM
[16] = target: Mitogen-activated protein kinase 9 (Homo sapiens) (UniProt P45984); test: % Activity remaining of JNK2 in the Dundee kinase panel at 1.0 µM; settings: Compound concentration 1.0 uM
[17] = target: Mitogen-activated protein kinase kinase kinase kinase 3 (Homo sapiens) (UniProt Q8IVH8); test: % Activity remaining of MAP4K3 in the Dundee kinase panel at 1.0 µM; settings: Compound concentration 1.0 uM
[18] = target: MAP kinase-activated protein kinase 3 (Homo sapiens) (UniProt Q16644); test: % Activity remaining of MAPKAP-K3 in the Dundee kinase panel at 1.0 µM; settings: Compound concentration 1.0 uM
Chain of MAP kinase-activated protein kinase 3 (Homo sapiens) (Q16644 whole entry, looked up): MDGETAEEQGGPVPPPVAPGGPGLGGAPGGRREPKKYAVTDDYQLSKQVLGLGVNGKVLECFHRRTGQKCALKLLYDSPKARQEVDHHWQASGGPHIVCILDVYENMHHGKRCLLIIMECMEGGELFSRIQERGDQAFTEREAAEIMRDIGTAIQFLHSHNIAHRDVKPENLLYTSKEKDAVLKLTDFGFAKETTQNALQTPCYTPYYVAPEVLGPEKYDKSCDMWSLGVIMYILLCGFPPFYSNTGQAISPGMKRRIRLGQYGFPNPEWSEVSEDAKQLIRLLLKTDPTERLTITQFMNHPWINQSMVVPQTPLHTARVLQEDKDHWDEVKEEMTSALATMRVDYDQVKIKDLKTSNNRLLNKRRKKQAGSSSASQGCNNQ

[19] = target: MAP/microtubule affinity-regulating kinase 4 (Homo sapiens) (UniProt Q96L34); test: % Activity remaining of MARK4 in the Dundee kinase panel at 1.0 µM; settings: Compound concentration 1.0 uM
[20] = target: Mitogen-activated protein kinase kinase kinase 11 (Homo sapiens) (UniProt Q16584); test: % Activity remaining of MLK3 in the Dundee kinase panel at 1.0 µM; settings: Compound concentration 1.0 uM
[21] = target: MAP kinase-interacting serine/threonine-protein kinase 1 (Homo sapiens) (UniProt Q9BUB5); test: % Activity remaining of MNK1 in the Dundee kinase panel at 1.0 µM; settings: Compound concentration 1.0 uM
Chain of MAP kinase-interacting serine/threonine-protein kinase 1 (Homo sapiens) (Q9BUB5 whole entry, looked up): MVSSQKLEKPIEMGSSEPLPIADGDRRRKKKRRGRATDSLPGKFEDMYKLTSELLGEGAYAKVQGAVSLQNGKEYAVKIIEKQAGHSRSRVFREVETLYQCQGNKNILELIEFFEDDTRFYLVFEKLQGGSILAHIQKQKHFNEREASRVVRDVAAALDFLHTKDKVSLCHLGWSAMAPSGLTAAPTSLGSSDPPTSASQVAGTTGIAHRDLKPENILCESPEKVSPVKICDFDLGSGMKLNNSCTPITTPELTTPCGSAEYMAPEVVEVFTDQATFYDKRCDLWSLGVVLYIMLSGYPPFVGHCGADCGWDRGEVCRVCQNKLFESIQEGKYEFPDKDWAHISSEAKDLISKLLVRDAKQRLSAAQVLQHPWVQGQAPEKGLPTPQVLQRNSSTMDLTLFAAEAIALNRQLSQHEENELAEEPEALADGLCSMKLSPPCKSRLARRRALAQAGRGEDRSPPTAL

[22] = target: Serine/threonine-protein kinase 26 (Homo sapiens) (UniProt Q9P289); test: % Activity remaining of MST4 in the Dundee kinase panel at 1.0 µM; settings: Compound concentration 1.0 uM
[23] = target: Mitogen-activated protein kinase 12 (Homo sapiens) (UniProt P53778); test: % Activity remaining of p38 gamma MAPK in the Dundee kinase panel at 1.0 µM; settings: Compound concentration 1.0 uM
Chain of Mitogen-activated protein kinase 12 (Homo sapiens) (P53778 whole entry): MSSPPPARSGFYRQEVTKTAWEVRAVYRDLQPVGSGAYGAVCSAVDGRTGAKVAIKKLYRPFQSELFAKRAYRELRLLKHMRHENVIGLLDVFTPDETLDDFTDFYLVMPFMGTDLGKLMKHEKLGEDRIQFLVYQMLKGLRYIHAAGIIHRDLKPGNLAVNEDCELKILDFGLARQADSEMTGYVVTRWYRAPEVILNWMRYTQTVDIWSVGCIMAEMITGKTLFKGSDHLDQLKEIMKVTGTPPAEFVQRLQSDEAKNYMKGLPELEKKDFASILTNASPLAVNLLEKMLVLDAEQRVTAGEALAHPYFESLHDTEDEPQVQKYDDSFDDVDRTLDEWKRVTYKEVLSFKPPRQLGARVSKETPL

[24] = target: Serine/threonine-protein kinase PAK 4 (Homo sapiens) (UniProt O96013); test: % Activity remaining of PAK4 in the Dundee kinase panel at 1.0 µM; settings: Compound concentration 1.0 uM
[25] = target: Serine/threonine-protein kinase PAK 6 (Homo sapiens) (UniProt Q9NQU5); test: % Activity remaining of PAK6 in the Dundee kinase panel at 1.0 µM; settings: Compound concentration 1.0 uM
[26] = target: Platelet-derived growth factor receptor alpha (Homo sapiens) (UniProt P16234); test: % Activity remaining of PDGFRA in the Dundee kinase panel at 1.0 µM; settings: Compound concentration 1.0 uM
Chain of Platelet-derived growth factor receptor alpha (Homo sapiens) (P16234 whole entry): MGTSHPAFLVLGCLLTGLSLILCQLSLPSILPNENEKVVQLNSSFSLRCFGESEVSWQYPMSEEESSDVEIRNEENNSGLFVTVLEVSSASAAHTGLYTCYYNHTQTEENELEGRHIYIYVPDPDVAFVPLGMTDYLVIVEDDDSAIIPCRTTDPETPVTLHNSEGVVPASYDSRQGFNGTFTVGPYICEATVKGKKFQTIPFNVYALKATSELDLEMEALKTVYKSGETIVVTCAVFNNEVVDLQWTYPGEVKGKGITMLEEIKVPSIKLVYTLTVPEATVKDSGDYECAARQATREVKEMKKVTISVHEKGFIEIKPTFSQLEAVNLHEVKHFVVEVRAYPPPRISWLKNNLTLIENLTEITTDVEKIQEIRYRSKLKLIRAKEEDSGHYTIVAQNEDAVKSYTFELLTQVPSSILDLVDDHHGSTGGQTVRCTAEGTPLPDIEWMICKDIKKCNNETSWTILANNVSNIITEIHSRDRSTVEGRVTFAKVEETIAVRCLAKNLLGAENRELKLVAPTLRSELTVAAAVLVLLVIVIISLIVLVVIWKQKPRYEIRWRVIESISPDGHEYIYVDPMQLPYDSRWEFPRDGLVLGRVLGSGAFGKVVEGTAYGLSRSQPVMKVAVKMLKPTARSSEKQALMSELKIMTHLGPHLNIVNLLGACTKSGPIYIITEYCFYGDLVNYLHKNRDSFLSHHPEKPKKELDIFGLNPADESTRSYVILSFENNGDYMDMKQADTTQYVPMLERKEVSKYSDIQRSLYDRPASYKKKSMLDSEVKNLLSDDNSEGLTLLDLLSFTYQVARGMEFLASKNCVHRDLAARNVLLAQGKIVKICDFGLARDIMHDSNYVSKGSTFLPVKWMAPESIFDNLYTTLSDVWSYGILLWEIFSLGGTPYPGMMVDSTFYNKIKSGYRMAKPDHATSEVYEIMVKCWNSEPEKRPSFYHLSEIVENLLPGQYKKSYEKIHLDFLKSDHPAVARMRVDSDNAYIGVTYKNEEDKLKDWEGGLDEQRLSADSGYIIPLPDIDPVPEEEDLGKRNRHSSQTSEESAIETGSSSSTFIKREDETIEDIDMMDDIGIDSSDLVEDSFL

[27] = target: Serine/threonine-protein kinase pim-2 (Homo sapiens) (UniProt Q9P1W9); test: % Activity remaining of PIM2 in the Dundee kinase panel at 1.0 µM; settings: Compound concentration 1.0 uM
Chain of Serine/threonine-protein kinase pim-2 (Homo sapiens) (Q9P1W9 whole entry, looked up): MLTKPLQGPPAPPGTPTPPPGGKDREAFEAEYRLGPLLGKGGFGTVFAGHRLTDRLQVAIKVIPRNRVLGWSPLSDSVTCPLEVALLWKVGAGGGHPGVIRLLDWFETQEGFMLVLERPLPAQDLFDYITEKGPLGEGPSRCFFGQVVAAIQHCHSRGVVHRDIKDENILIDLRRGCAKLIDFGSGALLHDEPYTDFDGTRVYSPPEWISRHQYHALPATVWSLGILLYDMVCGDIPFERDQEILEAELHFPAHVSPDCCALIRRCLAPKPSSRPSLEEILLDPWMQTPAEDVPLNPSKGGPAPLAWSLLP

[28] = target: Serine/threonine-protein kinase pim-3 (Homo sapiens) (UniProt Q86V86); test: % Activity remaining of PIM3 in the Dundee kinase panel at 1.0 µM; settings: Compound concentration 1.0 uM
[29] = target: cAMP-dependent protein kinase catalytic subunit alpha (Homo sapiens) (UniProt P17612); test: % Activity remaining of PKA in the Dundee kinase panel at 1.0 µM; settings: Compound concentration 1.0 uM
[30] = target: RAC-alpha serine/threonine-protein kinase (Homo sapiens) (UniProt P31749); test: % Activity remaining of PKB alpha in the Dundee kinase panel at 1.0 µM; settings: Compound concentration 1.0 uM
[31] = target: MAP kinase-activated protein kinase 5 (Homo sapiens) (UniProt Q8IW41); test: % Activity remaining of PRAK in the Dundee kinase panel at 1.0 µM; settings: Compound concentration 1.0 uM
[32] = target: Ribosomal protein S6 kinase beta-1 (Homo sapiens, UniProt P23443); test: % Activity remaining of S6K1 in the Dundee kinase panel at 1.0 µM; settings: for % Activity remaining: Compound concentration 1.0 uM
[33] = target: Serine/threonine-protein kinase SIK3 (Homo sapiens) (UniProt Q9Y2K2); test: % Activity remaining of SIK3 in the Dundee kinase panel at 1.0 µM; settings: Compound concentration 1.0 uM
[34] = target: Mitogen-activated protein kinase kinase kinase 7 (Homo sapiens) (UniProt O43318); test: % Activity remaining of TAK1 in the Dundee kinase panel at 1.0 µM; settings: Compound concentration 1.0 uM
[35] = target: Serine/threonine-protein kinase TAO1 (Homo sapiens) (UniProt Q7L7X3); test: % Activity remaining of TAO1 in the Dundee kinase panel at 1.0 µM; settings: Compound concentration 1.0 uM
Chain of Serine/threonine-protein kinase TAO1 (Homo sapiens) (Q7L7X3 whole entry): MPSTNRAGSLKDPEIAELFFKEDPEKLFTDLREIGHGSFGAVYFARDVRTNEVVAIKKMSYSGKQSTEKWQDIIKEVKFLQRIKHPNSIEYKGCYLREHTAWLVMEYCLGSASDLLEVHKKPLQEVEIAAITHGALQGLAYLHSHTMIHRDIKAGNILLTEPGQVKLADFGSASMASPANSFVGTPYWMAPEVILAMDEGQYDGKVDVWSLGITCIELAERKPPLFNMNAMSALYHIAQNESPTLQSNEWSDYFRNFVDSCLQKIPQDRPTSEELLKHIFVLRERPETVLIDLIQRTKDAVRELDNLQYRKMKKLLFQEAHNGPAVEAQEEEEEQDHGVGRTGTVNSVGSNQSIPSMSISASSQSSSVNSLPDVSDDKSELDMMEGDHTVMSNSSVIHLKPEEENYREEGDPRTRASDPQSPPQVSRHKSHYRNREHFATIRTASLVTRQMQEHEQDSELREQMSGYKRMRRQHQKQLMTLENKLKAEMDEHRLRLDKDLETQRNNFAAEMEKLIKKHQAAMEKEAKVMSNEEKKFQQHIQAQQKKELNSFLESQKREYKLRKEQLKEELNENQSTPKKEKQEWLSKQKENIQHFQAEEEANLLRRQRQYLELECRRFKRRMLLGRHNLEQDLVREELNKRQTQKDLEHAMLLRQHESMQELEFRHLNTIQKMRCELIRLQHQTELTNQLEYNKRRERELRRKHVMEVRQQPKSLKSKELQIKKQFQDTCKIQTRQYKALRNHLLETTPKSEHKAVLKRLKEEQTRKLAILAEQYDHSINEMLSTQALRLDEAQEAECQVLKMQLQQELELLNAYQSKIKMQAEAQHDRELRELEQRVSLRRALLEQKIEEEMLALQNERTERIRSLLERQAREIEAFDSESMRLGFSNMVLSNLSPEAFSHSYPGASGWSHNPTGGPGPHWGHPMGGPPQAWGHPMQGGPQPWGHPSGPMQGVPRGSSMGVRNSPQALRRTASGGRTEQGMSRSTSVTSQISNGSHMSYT

[36] = target: Serine/threonine-protein kinase WNK1 (Homo sapiens) (UniProt Q9H4A3); test: % Activity remaining of WNK1 in the Dundee kinase panel at 1.0 µM; settings: Compound concentration 1.0 uM
[37] = target: Tyrosine-protein kinase Yes (Homo sapiens) (UniProt P07947); test: % Activity remaining of YES1 in the Dundee kinase panel at 1.0 µM; settings: Compound concentration 1.0 uM
[38] = target: 3-phosphoinositide-dependent protein kinase 1 (Homo sapiens) (UniProt O15530); test: % Activity remaining of PDK1 in the Dundee kinase panel at 1.0 µM; settings: Compound concentration 1.0 uM
Chain of 3-phosphoinositide-dependent protein kinase 1 (Homo sapiens) (O15530 whole entry, looked up): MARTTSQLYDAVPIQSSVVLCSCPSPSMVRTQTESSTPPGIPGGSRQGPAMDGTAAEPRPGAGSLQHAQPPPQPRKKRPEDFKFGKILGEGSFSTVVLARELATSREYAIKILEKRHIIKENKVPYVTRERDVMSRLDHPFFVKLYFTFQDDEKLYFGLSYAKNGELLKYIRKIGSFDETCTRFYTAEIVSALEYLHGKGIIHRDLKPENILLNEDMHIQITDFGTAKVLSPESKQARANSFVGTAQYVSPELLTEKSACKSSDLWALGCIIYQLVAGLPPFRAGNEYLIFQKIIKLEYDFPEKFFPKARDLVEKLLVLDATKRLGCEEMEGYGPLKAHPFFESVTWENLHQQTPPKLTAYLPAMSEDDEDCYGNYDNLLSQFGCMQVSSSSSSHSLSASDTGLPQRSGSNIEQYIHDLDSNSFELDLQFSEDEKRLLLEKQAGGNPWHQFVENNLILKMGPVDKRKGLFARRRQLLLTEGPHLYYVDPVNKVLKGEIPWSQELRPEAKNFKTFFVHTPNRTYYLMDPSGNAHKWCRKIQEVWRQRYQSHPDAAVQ

Compound | % Activity remaining [1] [%] | % Activity remaining [2] [%] | % Activity remaining [3] [%] | % Activity remaining [4] [%] | % Activity remaining [5] [%] | % Activity remaining [6] [%] | % Activity remaining [7] [%] | % Activity remaining [8] [%] | % Activity remaining [9] [%] | % Activity remaining [10] [%] | % Activity remaining [11] [%] | % Activity remaining [12] [%] | % Activity remaining [13] [%] | % Activity remaining [14] [%] | % Activity remaining [15] [%] | % Activity remaining [16] [%] | % Activity remaining [17] [%] | % Activity remaining [18] [%] | % Activity remaining [19] [%] | % Activity remaining [20] [%] | other results
Cc1ccc(F)c(S(=O)(=O)Nc2ccc(-c3nc(OC[C@H]4CN(CCCCCCOCCOCCOCC(=O)N[C@H](C(=O)N5C[C@H](O)C[C@H]5C(=O)NCc5ccc(-c6scnc6C)cc5)C(C)(C)C)CCO4)c4cn[nH]c4n3)cc2)c1 | 105 | 90.3 | 108 | 96.9 | 98.9 | 103 | 111 | 104 | 118 | 102 | 108 | 109 | 98.3 | 103 | 95.4 | 117 | 98.8 | 79 | 105 | 70.5 | % Activity remaining [21]: 108%; % Activity remaining [22]: 106%; % Activity remaining [23]: 107%; % Activity remaining [24]: 81.1%; % Activity remaining [25]: 97.9%; % Activity remaining [26]: 101%; % Activity remaining [27]: 98.2%; % Activity remaining [28]: 88.1%; % Activity remaining [29]: 108%; % Activity remaining [30]: 105%; % Activity remaining [31]: 115%; IC50 [32]: 1800 nM; % Activity remaining [32]: 19%; % Activity remaining [33]: 78.7%; % Activity remaining [34]: 108%; % Activity remaining [35]: 99%; % Activity remaining [36]: 93.8%; % Activity remaining [37]: 108%; % Activity remaining [38]: 99.3%
Cc1ccc(F)c(S(=O)(=O)Nc2ccc(-c3nc(OC[C@H]4CN(CCCCCCOCCOCCOCC(=O)N[C@H](C(=O)N5C[C@@H](O)C[C@H]5C(=O)NCc5ccc(-c6scnc6C)cc5)C(C)(C)C)CCO4)c4cn[nH]c4n3)cc2)c1 | 108 | 91.4 | 106 | 90.6 | 108 | 105 | 126 | 84.8 | 113 | 104 | 106 | 99.7 | 105 | 89.9 | 93.6 | 109 | 95.5 | 77 | 100 | 75.6 | % Activity remaining [21]: 103%; % Activity remaining [22]: 99%; % Activity remaining [23]: 127%; % Activity remaining [24]: 113%; % Activity remaining [25]: 99.5%; % Activity remaining [26]: 94.8%; % Activity remaining [27]: 105%; % Activity remaining [28]: 88.8%; % Activity remaining [29]: 111%; % Activity remaining [30]: 117%; % Activity remaining [31]: 119%; IC50 [32]: 1700 nM; % Activity remaining [32]: 20.2%; % Activity remaining [33]: 117%; % Activity remaining [34]: 107%; % Activity remaining [35]: 105%; % Activity remaining [36]: 96.6%; % Activity remaining [37]: 105%; % Activity remaining [38]: 86.5%
